In ChEMBL document CHEMBL1143646, “Synthesis and HIV-1 integrase inhibitory activities of caffeic acid dimers derived from Salvia officinalis” (Bioorg Med Chem Lett, 2005):
pEC50, pIC50: −log10 of the molar value.

Legend:
[1] = target: Human immunodeficiency virus type 1 integrase (Human immunodeficiency virus 1, UniProt Q7ZJM1); assay: Inhibitory concentration against HIV-1 integrase
[2] = Antiviral activity against HIV-1 1 early replicative steps in HeLa-bgal- CD4+ (P4) reporter cells; format: functional; settings: Human immunodeficiency virus 1

Chain of Human immunodeficiency virus type 1 integrase (Q7ZJM1 whole entry): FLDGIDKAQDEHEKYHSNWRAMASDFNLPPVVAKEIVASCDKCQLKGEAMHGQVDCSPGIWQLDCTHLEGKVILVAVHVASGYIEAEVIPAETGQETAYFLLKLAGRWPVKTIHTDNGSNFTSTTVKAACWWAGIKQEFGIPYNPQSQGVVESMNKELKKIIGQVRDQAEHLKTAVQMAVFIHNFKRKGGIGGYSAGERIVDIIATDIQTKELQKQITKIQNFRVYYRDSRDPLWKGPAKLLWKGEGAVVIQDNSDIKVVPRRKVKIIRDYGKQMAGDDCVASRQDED

pIC50 [1] | pEC50 [2] | Structure (SMILES)
6.00 | 4.51 | O=C(O)/C=C/c1ccc(O)c(Oc2cc3cc(O)c(O)cc3oc2=O)c1
5.70 | 4.43 | O=C(O)/C=C/c1ccc(Oc2cc3cc(O)c(O)cc3oc2=O)c(O)c1
5.70 | 4.92 | O=c1oc2cc(O)c(O)cc2cc1O
